The source of these data is article PMC12136037, “Type II kinase inhibitors that target Parkinson’s disease–associated LRRK2” (Science Advances, 2025).

Common to all, as to experiment: DSF 100 kinase selectivity screen;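 note: compound tested at 20 µM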
Type in all cases: binding

The target of assay [1] is T1, ~100 representative kinases (Homo sapiens, UniProt P54764).
T1 construct: Recombinant protein kinase domains with a concentration of 2 μM
The conditions noted are these: Protein EPHA4; average of three replicates. The method in brief: (§1)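 Each kinase domain, at 2 μM, is mixed with 20 μM test compound and SYPRO Orange in Hepes (20 mM, pH 7.5) with 500 mM NaCl. Temperature is then raised at 3°C/min and fluorescence-monitored unfolding yields the melting temperature change, ΔTm in degrees Celsius.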

In assay [2] the target is T2, ~100 representative kinases (Homo sapiens, UniProt P11309).
T2 construct: Recombinant protein kinase domains with a concentration of 2 μM
T2 sequence (P11309 whole entry, the tested form may be a part): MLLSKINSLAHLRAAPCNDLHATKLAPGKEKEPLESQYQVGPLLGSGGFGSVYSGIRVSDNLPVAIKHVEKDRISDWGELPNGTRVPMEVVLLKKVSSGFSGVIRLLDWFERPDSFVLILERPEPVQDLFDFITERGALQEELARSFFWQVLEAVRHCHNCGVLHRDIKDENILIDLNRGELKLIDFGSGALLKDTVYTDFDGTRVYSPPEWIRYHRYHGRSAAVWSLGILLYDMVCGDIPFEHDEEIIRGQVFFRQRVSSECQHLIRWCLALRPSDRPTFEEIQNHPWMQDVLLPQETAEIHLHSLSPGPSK
The conditions noted are these: protein PIM1; average of three replicates. The method in brief:
as §1

In assay [3] the target is T3, ~100 representative kinases (Homo sapiens, UniProt P49759).
T3 construct: Recombinant protein kinase domains with a concentration of 2 μM
T3 sequence (P49759 whole entry, the tested form may be a part): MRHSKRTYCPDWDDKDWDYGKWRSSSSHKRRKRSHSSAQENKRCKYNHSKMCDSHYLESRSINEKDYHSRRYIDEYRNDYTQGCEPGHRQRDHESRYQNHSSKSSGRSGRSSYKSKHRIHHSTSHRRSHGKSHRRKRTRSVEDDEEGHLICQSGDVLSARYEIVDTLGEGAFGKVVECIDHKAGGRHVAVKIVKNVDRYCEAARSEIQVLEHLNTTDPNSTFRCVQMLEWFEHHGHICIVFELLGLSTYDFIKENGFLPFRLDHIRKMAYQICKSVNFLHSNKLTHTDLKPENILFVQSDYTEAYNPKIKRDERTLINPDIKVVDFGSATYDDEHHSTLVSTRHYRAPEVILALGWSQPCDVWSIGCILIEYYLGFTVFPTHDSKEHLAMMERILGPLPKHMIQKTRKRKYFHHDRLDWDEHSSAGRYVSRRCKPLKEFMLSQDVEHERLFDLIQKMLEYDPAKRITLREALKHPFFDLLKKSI
The conditions noted are these: Protein CLK1; average of three replicates. In a few lines:
as §1

Assay [4] deals with T4, ~100 representative kinases (Homo sapiens, UniProt O00444).
T4 construct: Recombinant protein kinase domains with a concentration of 2 μM
T4 sequence (O00444 1-970): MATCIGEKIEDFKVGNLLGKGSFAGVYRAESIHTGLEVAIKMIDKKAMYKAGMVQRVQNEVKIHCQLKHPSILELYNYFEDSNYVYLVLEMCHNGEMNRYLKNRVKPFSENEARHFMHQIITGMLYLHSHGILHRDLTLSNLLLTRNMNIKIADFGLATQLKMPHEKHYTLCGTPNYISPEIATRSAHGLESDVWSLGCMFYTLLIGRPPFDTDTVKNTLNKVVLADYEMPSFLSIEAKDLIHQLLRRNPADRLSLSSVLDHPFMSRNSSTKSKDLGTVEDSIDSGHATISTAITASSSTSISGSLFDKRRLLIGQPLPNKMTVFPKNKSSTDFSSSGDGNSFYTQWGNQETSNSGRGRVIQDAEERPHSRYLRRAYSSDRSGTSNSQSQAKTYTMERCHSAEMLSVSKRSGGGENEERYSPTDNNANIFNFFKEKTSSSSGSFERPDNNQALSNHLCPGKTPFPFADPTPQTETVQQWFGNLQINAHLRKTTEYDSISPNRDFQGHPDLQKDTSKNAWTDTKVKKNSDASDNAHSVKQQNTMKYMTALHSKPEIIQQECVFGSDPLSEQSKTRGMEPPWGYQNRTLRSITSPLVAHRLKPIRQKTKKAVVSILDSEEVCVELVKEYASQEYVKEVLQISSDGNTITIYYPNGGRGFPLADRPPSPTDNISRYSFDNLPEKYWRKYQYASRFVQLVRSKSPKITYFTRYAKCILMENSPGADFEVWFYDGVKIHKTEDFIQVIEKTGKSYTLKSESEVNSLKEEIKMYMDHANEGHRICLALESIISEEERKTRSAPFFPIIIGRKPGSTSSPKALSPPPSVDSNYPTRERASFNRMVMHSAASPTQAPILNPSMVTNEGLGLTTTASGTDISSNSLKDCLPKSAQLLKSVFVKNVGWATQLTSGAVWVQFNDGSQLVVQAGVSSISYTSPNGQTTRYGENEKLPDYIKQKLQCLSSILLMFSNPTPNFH
The conditions noted are these: protein PLK4; average of three replicates. The method in brief: as §1

Assay [5] has as its target T5, ~100 representative kinases (Homo sapiens, UniProt Q92630).
T5 construct: Recombinant protein kinase domains with a concentration of 2 μM
T5 sequence (Q92630 1-601): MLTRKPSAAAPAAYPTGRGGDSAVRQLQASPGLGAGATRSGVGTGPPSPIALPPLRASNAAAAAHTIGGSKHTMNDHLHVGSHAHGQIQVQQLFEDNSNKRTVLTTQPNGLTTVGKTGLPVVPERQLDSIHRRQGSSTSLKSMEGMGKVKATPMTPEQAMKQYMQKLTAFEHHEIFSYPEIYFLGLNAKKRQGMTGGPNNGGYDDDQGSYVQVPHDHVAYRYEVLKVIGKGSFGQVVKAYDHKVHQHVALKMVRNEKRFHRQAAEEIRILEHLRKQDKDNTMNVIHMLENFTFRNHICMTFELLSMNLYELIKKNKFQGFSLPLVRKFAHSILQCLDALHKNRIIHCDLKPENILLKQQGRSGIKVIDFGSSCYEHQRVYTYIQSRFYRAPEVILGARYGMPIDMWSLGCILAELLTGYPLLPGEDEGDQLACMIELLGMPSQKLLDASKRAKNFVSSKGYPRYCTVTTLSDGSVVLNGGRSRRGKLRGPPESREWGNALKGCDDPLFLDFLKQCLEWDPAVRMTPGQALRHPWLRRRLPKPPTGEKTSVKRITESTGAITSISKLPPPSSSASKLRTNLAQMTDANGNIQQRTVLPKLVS
To be noted: Protein DYRK2; average of three replicates. In a few lines:
as §1

Assay [6] has as its target T6, ~100 representative kinases (Homo sapiens, UniProt Q13554).
T6 construct: Recombinant protein kinase domains with a concentration of 2 μM
The conditions noted are these: Protein CAMK2B; average of three replicates. In a few lines:
as §1

T6 sequence (Q13554 whole entry, the tested form may be a part): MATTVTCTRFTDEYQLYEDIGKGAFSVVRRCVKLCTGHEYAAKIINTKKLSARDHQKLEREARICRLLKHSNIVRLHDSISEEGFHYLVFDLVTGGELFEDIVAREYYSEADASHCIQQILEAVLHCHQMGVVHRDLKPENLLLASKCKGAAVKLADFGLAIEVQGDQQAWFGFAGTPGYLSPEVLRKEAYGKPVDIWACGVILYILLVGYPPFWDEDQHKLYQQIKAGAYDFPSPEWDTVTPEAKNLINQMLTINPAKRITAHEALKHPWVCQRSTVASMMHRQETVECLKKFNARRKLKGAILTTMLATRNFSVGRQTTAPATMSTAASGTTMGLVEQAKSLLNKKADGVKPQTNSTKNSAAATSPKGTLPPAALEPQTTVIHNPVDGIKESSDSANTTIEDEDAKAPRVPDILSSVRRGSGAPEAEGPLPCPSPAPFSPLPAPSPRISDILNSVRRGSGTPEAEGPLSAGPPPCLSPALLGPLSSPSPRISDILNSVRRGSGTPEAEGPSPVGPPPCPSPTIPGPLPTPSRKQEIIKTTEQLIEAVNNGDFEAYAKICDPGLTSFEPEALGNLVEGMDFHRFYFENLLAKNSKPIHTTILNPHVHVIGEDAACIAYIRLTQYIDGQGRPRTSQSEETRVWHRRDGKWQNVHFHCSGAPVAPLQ
T1 sequence (P54764 20-986): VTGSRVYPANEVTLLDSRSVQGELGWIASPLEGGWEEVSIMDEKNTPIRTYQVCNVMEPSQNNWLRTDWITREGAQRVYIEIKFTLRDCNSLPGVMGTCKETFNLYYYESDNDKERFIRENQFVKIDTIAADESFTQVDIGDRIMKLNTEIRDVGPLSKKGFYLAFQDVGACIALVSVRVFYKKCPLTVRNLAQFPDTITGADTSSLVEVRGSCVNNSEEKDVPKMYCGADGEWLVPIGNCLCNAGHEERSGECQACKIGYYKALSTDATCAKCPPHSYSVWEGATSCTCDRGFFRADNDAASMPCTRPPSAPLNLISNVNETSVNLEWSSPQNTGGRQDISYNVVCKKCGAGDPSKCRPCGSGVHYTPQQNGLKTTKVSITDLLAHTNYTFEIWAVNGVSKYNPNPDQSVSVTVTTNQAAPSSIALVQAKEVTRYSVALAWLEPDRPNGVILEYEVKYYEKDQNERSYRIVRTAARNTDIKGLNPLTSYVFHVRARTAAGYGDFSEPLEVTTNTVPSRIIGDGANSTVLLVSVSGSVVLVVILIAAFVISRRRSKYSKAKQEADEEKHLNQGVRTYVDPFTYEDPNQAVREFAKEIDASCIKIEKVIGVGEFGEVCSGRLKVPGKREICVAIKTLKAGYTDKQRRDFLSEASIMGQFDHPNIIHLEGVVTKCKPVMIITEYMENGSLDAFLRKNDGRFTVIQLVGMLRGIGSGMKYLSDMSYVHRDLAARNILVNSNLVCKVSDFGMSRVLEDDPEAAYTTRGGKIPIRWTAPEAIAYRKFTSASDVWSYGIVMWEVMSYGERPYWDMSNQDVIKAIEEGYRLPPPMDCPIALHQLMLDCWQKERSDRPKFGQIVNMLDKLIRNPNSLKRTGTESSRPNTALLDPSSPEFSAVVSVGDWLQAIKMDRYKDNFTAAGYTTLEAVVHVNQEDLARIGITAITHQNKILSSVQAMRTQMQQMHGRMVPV

Turning to `O=C(Nc1cccc(-c2c[nH]c3ncnc(N4CCOCC4)c23)c1)C1(C(=O)Nc2cc(Br)c(F)cc2F)CC1` [Compound 25], the dTm in assay [1] turned out to be 1.97 K; in assay [2], 2.04 K; in assay [3] it was 4.99 K; in assay [4], 0.00 K; in assay [5] it was 2.68 K; in assay [6] it was 1.90 K.

Turning to `O=C(Nc1cccc(-c2c[nH]c3ncnc(N4CCOCC4)c23)c1)C1(C(=O)Nc2ccc(F)c(Br)c2F)CC1` [Compound 26], the dTm in assay [1] is given as 2.01 K; in assay [2] it was 1.29 K; in assay [3] it was 6.34 K; in assay [4], 5.97 K; in assay [5], 4.70 K; in assay [6], 1.60 K.

As for `O=C(Nc1cc(F)cc(Br)c1)C1(C(=O)Nc2cccc(-c3c[nH]c4ncnc(N5CCOCC5)c34)c2)CC1` [Compound 27], the dTm came to 1.53 K in assay [1]; 1.64 K in assay [2]; 7.78 K in assay [3]; 0.00 K in assay [4]; 3.64 K in assay [5]; 1.75 K in assay [6].

Regarding `CC(C)(C)c1cc(NC(=O)Nc2cccc(-c3c[nH]c4ncnc(N5CCOCC5)c34)c2)n(-c2ccc3ncccc3c2)n1` [Compound 28], the dTm in assay [1] was determined as 8.59 K; in assay [2], 7.97 K; in assay [3] it was 19.59 K; in assay [4] it was 3.84 K; in assay [5], 10.25 K; in assay [6], 1.84 K.

With `Cc1ccc(-n2nc(C(C)(C)C)cc2NC(=O)Nc2cccc(-c3c[nH]c4ncnc(N5CCOCC5)c34)c2)cc1` [Compound 29], the dTm is 6.97 K in assay [1]; 3.53 K in assay [2]; 17.42 K in assay [3]; 4.74 K in assay [4]; 9.71 K in assay [5]; -0.15 K in assay [6].

As for `Cc1ccc(-n2nc(C(C)(C)C)cc2NC(=O)Nc2cccc(-c3c[nH]c4nc(Cl)nc(N5CCOCC5)c34)c2)cc1` [Compound 30], the dTm in assay [1] is given as 1.07 K; in assay [2], 1.31 K; in assay [3], 11.59 K; in assay [4], 0.26 K; in assay [5] it was 3.48 K; in assay [6] it was -1.25 K.

As for `CC(=O)N1CCN(c2nc(Cl)nc3[nH]cc(-c4cccc(NC(=O)Nc5cc(C(C)(C)C)nn5-c5ccc(C)cc5)c4)c23)CC1` [Compound 31], the dTm in assay [1] is 2.58 K; in assay [2], 3.25 K; in assay [3], 10.57 K; in assay [4], 0.19 K; in assay [5], 6.61 K; in assay [6], -1.59 K.

For the molecule `CCSc1nc(NC)c2c(-c3cccc(NC(=O)Nc4cc(C(C)(C)C)nn4-c4ccc(C)cc4)c3)c[nH]c2n1` [Compound 32], the dTm is -0.34 K in assay [1]; 1.50 K in assay [2]; 5.52 K in assay [3]; 0.48 K in assay [4]; 6.49 K in assay [5]; 0.33 K in assay [6].

With `COc1cc(C(=O)N2CCOCC2)c(F)cc1Nc1nc(N(C)C)c2c(Cl)c[nH]c2n1` [Compound 36], the dTm in assay [1] was -0.69 K; in assay [2], -0.51 K; in assay [3], 8.96 K; in assay [4], 10.15 K; in assay [5], 5.31 K; in assay [6] it was 2.02 K.

On to `COc1cc(S(C)(=O)=O)ccc1Nc1nc(N(C)C)c2c(Cl)c[nH]c2n1` [Compound 37], for which the dTm in assay [1] is -0.37 K; in assay [2], -0.49 K; in assay [3], 5.62 K; in assay [4], 4.57 K; in assay [5] it was 1.57 K; in assay [6] it was -0.66 K.

As to `COc1cc2c(Oc3ccc(NC(=O)C4(C(=O)Nc5ccc(F)cc5)CC4)cc3F)ccnc2cc1OCCCN1CCOCC1` [Foretinib, reference compound], the dTm was 11.16 K in assay [1]; 1.41 K in assay [2]; 6.72 K in assay [3]; 16.61 K in assay [4]; 4.19 K in assay [5]; 0.83 K in assay [6].

As to `CCNc1nc(Nc2cc(F)c(C(=O)N3CCOCC3)cc2OC)ncc1C(F)(F)F` [GNE-7915], the dTm in assay [1] is reported as 0.0738 K; in assay [2], 0.44 K; in assay [3], 5.28 K; in assay [4], 1.52 K; in assay [5], 4.85 K; in assay [6], 0.10 K.

Turning to `Cc1ccc(C(=O)Nc2ccc(CN3CCN(C)CC3)c(C(F)(F)F)c2)cc1C#Cc1cnc2[nH]ncc2c1` [GZD-824, reference compound], the dTm in assay [1] is on record as 15.22 K; in assay [2], -0.44 K; in assay [3], 7.80 K; in assay [4] it was 2.97 K; in assay [5], 4.99 K; in assay [6], 0.11 K.

As to `C[C@@H]1CN(c2cc(-c3n[nH]c4ccc(OC5(C)CC5)cc34)ncn2)C[C@H](C)O1` [MLi2], the dTm in assay [1] is reported as -0.15 K; in assay [2], 0.81 K; in assay [3], 3.00 K; in assay [4] it was 3.07 K; in assay [5], 1.21 K; in assay [6] it was 1.04 K.

Consider `Cn1cc(-c2c[nH]c3ncnc(N4CCOCC4)c23)cc1C#N` [PFE-360], for which the dTm stood at 0.0126 K in assay [1]; 1.04 K in assay [2]; 7.59 K in assay [3]; 4.43 K in assay [4]; 1.08 K in assay [5]; 0.00751 K in assay [6].

Consider `CNC(=O)c1cc(Oc2ccc(NC(=O)Nc3cc(C(C)(C)C)nn3-c3ccc4ncccc4c3)c(F)c2)ccn1` [Rebastinib, reference compound], for which the dTm in assay [1] was determined as 15.87 K; in assay [2], 0.65 K; in assay [3] it was 15.99 K; in assay [4], 6.17 K; in assay [5], 6.14 K; in assay [6], 0.87 K.
